# Reference: patent publication US20220008411A1, “TOLL-LIKE RECEPTOR 7 OR 8 AGONIST-CHOLESTEROL COMPLEX AND METHOD OF PREPARING SAME” (RESEARCH & BUSINESS FOUNDATION SUNGKYUNKWAN UNIVERSITY, priority 2019, published 2022)
# B1: OVA antigen: ovalbumin (OVA) antigen (protein, UniProt P01012 2-386, looked up)
# Ovalbumin: GSIGAASMEFCFDVFKELKVHHANENIFYCPIAIMSALAMVYLGAKDSTRTQINKVVRFDKLPGFGDSIEAQCGTSVNVHSSLRDILNQITKPNDVYSFSLASRLYAEERYPILPEYLQCVKELYRGGLEPINFQTAADQARELINSWVESQTNGIIRNVLQPSSVDSQTAMVLVNAIVFKGLWEKAFKDEDTQAMPFRVTEQESKPVQMMYQIGLFRVASMASEKMKILELPFASGTMSMLVLLPDEVSGLEQLESIINFEKLTEWTSSNVMEERKIKVYLPRMKMEEKYNLTSVLMAMGITDVFSSSANLSGISSAESLKISQAVHAAHAEINEAGREVVGSAEAGVDAASVSEEFRADHPFLFCIKHIATNAVLFFGRCVSP
# Key:
# [1] = toxicity in vivo (serum cytokine, body weight); design: species or system C57BL/6 mouse; details: 25 μg/100 μL subcutaneous
# Description: In addition, the collected blood was centrifuged (4° C., 13,000 rpm, 20 min) to separate serum and blood cells, and a cytokine amount was measured through ELISA using the serum.
# [2] = test system: bone marrow-derived dendritic cells (BMDCs) or bone marrow-derived macrophages (BMDMs); experiment: activation of immune cells, cleavable vs uncleavable complex (ELISA); format: cell-based; details: given as liposome, 24 hours
# Description: Degree of activation of immune cells was confirmed using the cholesterol-resiquimod complex, in which cholesterol is not cleaved at a specific point of time as a control. […] In addition, a liquid culture was obtained, centrifuged at 490 g for 5 minutes, thereby obtaining only a supernatant, and ELISA was carried out using a BD OptEIA™ kit.
# carboxylesterase = details: nanoliposome, 30 units of carboxylesterase, 37° C.
# [3] = test system: B16-OVA melanoma cell line; experiment: anticancer effect with OVA antigen in B16-OVA melanoma model; details: intratumoral injection on day 0, 3, 6 and 9
# Description: More specifically, 5×10^5 cells of a B16-OVA cell line were subcutaneously injected into the right flank of a C57BL/6 mouse, and the time when a tumor size reached approximately 50 mm^3 was set to day 0, each of phosphate-buffered saline (control), an OVA antigen (OVA), resiquimod+OVA antigen (R848+OVA), and a nanoliposome including a cholesterol-resiquimod complex, +OVA antigen (Lipo(Chol-R848)+OVA) were administered into a mouse through intratumoral injection on day 0, 3, 6 and 9. 10 μg of the OVA antigen was administered, 25 μg of resiquimod was administered, and 25 μg (based on resiquimod) of the nanoliposome including the cholesterol-resiquimod complex was administered. In addition, a mouse survival rate and a cancer size were measured.
molecule,measurement,setting,value
CCOCc1nc2c(N)nc3ccccc3c2n1CC(C)(C)O [resiquimod],body weight,[1],dramatically changing a body weight
same,cytokine amount in serum,[1],rapidly increased in serum at an early stage
"CCOCc1nc2c(NC(=O)OC3CCC4(C)C(=CCC5C4CCC4(C)C(C(C)CCCC(C)C)CCC54)C3)nc3ccccc3c2n1CC(C)(C)O (stereo not drawn) [Chol-R848, cholesterol-conjugated resiquimod]",activation of immune cells,[2],effectively activates immune cells
same,cholesterol cleavage by enzyme,carboxylesterase,cleaved
B1,mouse survival,[3],no mouse surviving three weeks or more
same,cancer size,"[3]; 10 μg OVA, 25 μg resiquimod basis",dramatically increased
